Experimental data from US11884707B2, “Compositions for detection, inhibition and imaging of indoleamine 2, 3-dioxygenase 1 (IDO1) and methods of making and using same” (Regeneron Pharmaceuticals, Inc., priority 2016, dated 2024).
Where a SMILES comes first, the peptide text is derived from it. Bridges are numbered along the chain shown (N, C = ends). Triazole bridges read from a SMILES are 1,4-linked. [ ]: non-standard residue; d: D form. The star is where a group is joined. Biotinyl(3aR,4R,6aS) = O=C1N[C@@H]2[C@@H](CS[C@@H]2CCCCC(=O)*)N1; Biotin = O=C1N[C@H]2[C@H](CS[C@H]2CCCCC(=O)*)N1; Trp(1-Me) = Cn1cc(C[C@H](N)C(=O)O)c2ccccc21; Lys(N3) = [N-]=[N+]=NCCCC[C@H](N)C(=O)O; Phe(4-F) = N[C@@H](Cc1ccc(F)cc1)C(=O)O; AEEEA = NCCOCCOCCOCC(=O)O; Pra = C#CC[C@H](N)C(=O)O

Biological target: T1, His-tagged IDO1 human recombinant protein (Homo sapiens, UniProt P14902)
T1 construct: purchased BPS Biosciences 71182
Experiment: IDO1 ELISA (affinity assay), sandwich ELISA with immobilized biotinylated macrocycle
Assay type: binding
Details: for EC50: biotin-PEG3-modified macrocycle immobilized on NeutrAvidin plate (2 μM coating), His-tagged human IDO1 200 to 0 nM
Protocol: A black 96-well NeutrAvidin Coated High Binding Capacity plate (15510, Pierce) was coated with 2 μM biotinylated macrocyclic peptide ligand in TBS (25 mM Tris-HCl, 150 mM NaCl, pH 7.6) for 2 h at room temperature. The plate was aspirated and then washed with Wash Buffer (0.05% (v/v) Tween-20 in PBS, 6×). His-tagged IDO1 human recombinant protein (71182, BPS Biosciences) was serially diluted in Wash Buffer (from 200 to 0 nM) and incubated in the designated microwells for 1 h at room temperature. Microwells were aspirated and subsequently washed with Wash Buffer (11×). To detect the bound IDO1 protein, Alkaline Phosphatase (AP)-conjugated Anti-6×His Tag® antibody [HIS-1] (ab49746, Abcam) was prepared at 1:10,000 dilution and added to the microwells for 1 h at room temperature. The plate was aspirated and washed with Wash Buffer (5×). AttoPhos® AP Fluorescent Substrate System (S1000, Promega) was employed to develop the microwells. Using an excitation wavelength of 430 nm, fluorescent emission at 535 nm was recorded by Beckman Coulter DTX880 photometer. Titration curves were fit using a four-parameter regression curve fitting program to determine EC50 values.
The binding affinities of biotin-PEG3-modified macrocyclic peptide ligands were tested in an ELISA format. For these assays, a dilution series of His-tagged IDO1 human recombinant protein was captured using the macrocyclic peptide ligands immobilized on a NeutrAvidin-coated plate. […] The sequences of the peptide ligands are listed in Table 1, where D-amino acids are denoted in lowercase, Me-Trp=1-methyl-L-tryptophan, and F-Phe=4-fluoro-L-phenylalanine.
The D-alanine substituted, biotin-PEG3-modified macrocycles were tested in the IDO1 ELISA (Affinity assay). For these assays, a dilution series of His-tagged IDO1 human recombinant protein was captured using macrocycles immobilized on a NeutrAvidin-coated plate.

[1] = alanine scan and 3-mer/4-mer variants, biotin-PEG3-modified, FIGS. 15-18

T1 sequence (P14902 whole entry): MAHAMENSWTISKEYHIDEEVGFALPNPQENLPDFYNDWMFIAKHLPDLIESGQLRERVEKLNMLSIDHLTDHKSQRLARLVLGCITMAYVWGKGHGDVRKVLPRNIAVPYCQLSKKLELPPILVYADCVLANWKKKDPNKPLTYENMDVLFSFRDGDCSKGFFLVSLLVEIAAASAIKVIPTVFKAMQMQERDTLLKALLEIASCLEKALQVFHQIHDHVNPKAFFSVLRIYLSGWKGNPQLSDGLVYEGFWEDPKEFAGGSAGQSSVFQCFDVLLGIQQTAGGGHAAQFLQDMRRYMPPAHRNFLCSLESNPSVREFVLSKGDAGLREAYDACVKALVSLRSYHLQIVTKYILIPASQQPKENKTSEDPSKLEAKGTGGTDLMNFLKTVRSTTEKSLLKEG

Row | Compound | EC50 | Binding affinity to human IDO1 relative to parent macrocycle or sibling variants (in words) [1] | also measured
1 | C[C@H]1NC(=O)[C@@H](Cc2ccccc2)NC(=O)[C@@H](CCCNC(=N)N)NC(=O)[C@@H](Cc2ccccc2)NC(=O)[C@@H](NC(=O)COCCOCCOCCNC(=O)CCCC[C@@H]2SC[C@@H]3NC(=O)N[C@@H]32)Cc2cn(nn2)CCCC[C@@H](C(N)=O)NC(=O)[C@@H](CO)NC1=O [frfas, Biotin-PEG3-Cy(frfas)] ({Biotin-AEEEA}-[Pra][dF][dR][dF][dA][dS][Lys(N3)]-NH2; triazole 1-7) | – | weakest binding to IDO1 | –
2 | CC(C)C[C@H]1NC(=O)[C@@H](NC(=O)COCCOCCOCCNC(=O)CCCC[C@H]2SC[C@H]3NC(=O)N[C@H]32)Cc2cn(nn2)CCCC[C@@H](C(N)=O)NC(=O)[C@H](Cc2ccc(F)cc2)NC(=O)[C@H](Cc2cn(C)c3ccccc23)NC(=O)[C@@H](Cc2ccccc2)NC1=O [lf(Me-Trp)(F-Phe), Biotin-PEG3-Cy(lf(Me-Trp)(F-Phe))] ({Biotinyl(3aR,4R,6aS)-AEEEA}-[Pra][dL][dF][Trp(1-Me)][Phe(4-F)][Lys(N3)]-NH2; triazole 1-6) | – | slight decrease in binding affinity | –
3 | NC(=O)[C@@H]1CCCCn2cc(nn2)C[C@H](NC(=O)COCCOCCOCCNC(=O)CCCC[C@@H]2SC[C@@H]3NC(=O)N[C@@H]32)C(=O)N[C@H](CO)C(=O)N[C@H](Cc2c[nH]c3ccccc23)C(=O)N[C@H](Cc2c[nH]c3ccccc23)C(=O)N[C@@H](Cc2ccc(F)cc2)C(=O)N1 [sww(F-Phe), Biotin-PEG3-Cy(sww(F-Phe))] ({Biotin-AEEEA}-[Pra][dS][dW][dW][Phe(4-F)][Lys(N3)]-NH2; triazole 1-6) | – | – | Maximum ELISA signal for human IDO1 binding (in words) [1]: superior to the other 4-mers generated
4 | N=C(N)NCCC[C@H]1NC(=O)[C@@H](Cc2ccc(O)cc2)NC(=O)[C@@H](Cc2c[nH]c3ccccc23)NC(=O)[C@@H](NC(=O)COCCOCCOCCNC(=O)CCCC[C@H]2SC[C@H]3NC(=O)N[C@H]32)Cc2cn(nn2)CCCC[C@@H](C(N)=O)NC(=O)[C@@H](Cc2ccc(O)cc2)NC1=O [wyry, Biotin-PEG3-Cy(wyry)] ({Biotinyl(3aR,4R,6aS)-AEEEA}-[Pra][dW][dY][dR][dY][Lys(N3)]-NH2; triazole 1-6) | – | best affinity among the 4-mer macrocycles | –

The next lines start with results.

Row | EC50 | Compound | Binding affinity to human IDO1 relative to parent macrocycle or sibling variants (in words) [1] | also measured
5 | 20 nM | Cn1cc(C[C@@H]2NC(=O)[C@@H](Cc3ccccc3)NC(=O)[C@@H](CCCNC(=N)N)NC(=O)[C@@H](Cc3ccccc3)NC(=O)[C@@H](NC(=O)COCCOCCOCCNC(=O)CCCC[C@@H]3SC[C@@H]4NC(=O)N[C@@H]43)Cc3cn(nn3)CCCC[C@@H](C(N)=O)NC(=O)[C@@H](CO)NC2=O)c2ccccc21 [biotin-PEG3-Cy(frf(Me-Trp)s)] ({Biotin-AEEEA}-[Pra][dF][dR][dF][Trp(1-Me)][dS][Lys(N3)]-NH2; triazole 1-7) | – | –
6 | 124 nM | Cn1cc(C[C@@H]2NC(=O)[C@@H](CCCNC(=N)N)NC(=O)[C@@H](Cc3ccccc3)NC(=O)[C@@H](CO)NC(=O)[C@@H](CC(N)=O)NC(=O)[C@@H](NC(=O)COCCOCCOCCNC(=O)CCCC[C@@H]3SC[C@@H]4NC(=O)N[C@@H]43)Cc3cn(nn3)CCCC[C@@H](C(N)=O)NC2=O)c2ccccc21 [biotin-PEG3-Cy(nsfr(Me-Trp))] ({Biotin-AEEEA}-[Pra][dN][dS][dF][dR][Trp(1-Me)][Lys(N3)]-NH2; triazole 1-7) | – | –
7 | 125 nM | CC(C)C[C@H]1NC(=O)[C@@H](Cc2ccc(O)cc2)NC(=O)[C@@H](Cc2ccccc2)NC(=O)[C@@H](Cc2ccccc2)NC(=O)[C@@H](CCCNC(=N)N)NC(=O)[C@@H](NC(=O)COCCOCCOCCNC(=O)CCCC[C@@H]2SC[C@@H]3NC(=O)N[C@@H]32)Cc2cn(nn2)CCCC[C@@H](C(N)=O)NC1=O [biotin-PEG3-Cy(rffyl)] ({Biotin-AEEEA}-[Pra][dR][dF][dF][dY][dL][Lys(N3)]-NH2; triazole 1-7) | – | –
8 | 25 nM | C[C@H]1NC(=O)[C@@H](CCCNC(=N)N)NC(=O)[C@@H](Cc2ccc(O)cc2)NC(=O)[C@@H](Cc2c[nH]c3ccccc23)NC(=O)[C@@H](NC(=O)COCCOCCOCCNC(=O)CCCC[C@@H]2SC[C@@H]3NC(=O)N[C@@H]32)Cc2cn(nn2)CCCC[C@@H](C(N)=O)NC(=O)[C@@H](Cc2ccc(O)cc2)NC1=O [biotin-PEG3-Cy(wyray)] ({Biotin-AEEEA}-[Pra][dW][dY][dR][dA][dY][Lys(N3)]-NH2; triazole 1-7) | – | –
